Source: PubChem BioAssay (NCI)
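How tested: cells in 96-well plates exposed to compound for 48 hours at five concentrations. The concentration for full growth arrest is given as TGI.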

Key:
Assay in all cases: DTP human tumour cell line panel, 48 h
U251 CNS = system: U251 CNS
OVCAR-3 ovarian = system: OVCAR-3 ovarian
NCI-H522 lung = system: NCI-H522 lung
BT-549 breast = system: BT-549 breast
HOP-92 NSCLC = system: HOP-92 NSCLC
HS 578T breast = system: HS 578T breast
OVCAR-8 ovarian = system: OVCAR-8 ovarian
SNB-19 CNS = system: SNB-19 CNS
SR leukemia = system: SR leukemia
LOX IMVI melanoma = system: LOX IMVI melanoma
NCI-H226 lung = system: NCI-H226 lung
NCI-H460 lung = system: NCI-H460 lung
OVCAR-4 ovarian = system: OVCAR-4 ovarian
MALME-3M melanoma = system: MALME-3M melanoma
UACC-62 melanoma = system: UACC-62 melanoma
SNB-75 CNS = system: SNB-75 CNS
SK-MEL-28 melanoma = system: SK-MEL-28 melanoma
HCT-116 colon = system: HCT-116 colon
786-0 renal = system: 786-0 renal
NCI/ADR-RES ovarian = system: NCI/ADR-RES ovarian

Structure (SMILES)	TGI (U251 CNS)	TGI (OVCAR-3 ovarian)	TGI (NCI-H522 lung)	TGI (BT-549 breast)	TGI (HOP-92 NSCLC)	TGI (HS 578T breast)	TGI (OVCAR-8 ovarian)	TGI (SNB-19 CNS)	TGI (SR leukemia)	TGI (LOX IMVI melanoma)	TGI (NCI-H226 lung)	TGI (NCI-H460 lung)	TGI (OVCAR-4 ovarian)	TGI (MALME-3M melanoma)	TGI (UACC-62 melanoma)	TGI (SNB-75 CNS)	TGI (SK-MEL-28 melanoma)	TGI (HCT-116 colon)	TGI (786-0 renal)	TGI (NCI/ADR-RES ovarian)
COc1cc(CC2CCc3nc(N)nc(N)c3C2)cc(OC)c1OC (configuration not stated)	> 100 µM	> 100 µM	17 µM	> 100 µM	> 100 µM	> 100 µM	> 100 µM	> 100 µM	> 100 µM	> 43.1 µM	> 66.1 µM	> 91.5 µM	> 100 µM	28.4 µM	> 100 µM	> 48.8 µM	> 100 µM	–	–	–
CCCSc1cc(Cl)c(C)cc1S(=O)(=O)n1cc[nH]c1=O	> 100 µM	> 100 µM	> 100 µM	> 100 µM	–	> 100 µM	> 100 µM	> 100 µM	> 100 µM	> 100 µM	> 100 µM	> 100 µM	> 100 µM	> 100 µM	> 100 µM	> 100 µM	> 100 µM	> 100 µM	> 100 µM	> 100 µM
COC(=O)c1ccccc1C1CN=NC12Cc1c(C)cc(C)cc1C2=O (configuration not stated)	> 100 µM	> 100 µM	> 100 µM	> 100 µM	> 100 µM	> 100 µM	> 100 µM	> 100 µM	–	> 100 µM	> 100 µM	> 100 µM	> 100 µM	> 100 µM	> 100 µM	> 100 µM	> 100 µM	> 100 µM	> 100 µM	> 100 µM
CO/C(=N/N1CC1C(F)(F)F)c1ccncc1 (configuration not stated)	> 100 µM	> 100 µM	> 100 µM	> 100 µM	> 100 µM	> 100 µM	> 100 µM	> 100 µM	> 100 µM	–	> 100 µM	> 100 µM	> 100 µM	> 100 µM	> 100 µM	> 100 µM	> 100 µM	> 100 µM	–	> 100 µM
CCOC(=O)CSc1nc(-c2ccc(OC)cc2)c(C#N)c(=O)[nH]1	> 100 µM	> 100 µM	> 100 µM	> 100 µM	> 100 µM	> 100 µM	> 100 µM	> 100 µM	> 100 µM	–	> 100 µM	> 100 µM	> 100 µM	–	> 100 µM	> 100 µM	> 100 µM	> 100 µM	> 100 µM	> 100 µM
COc1ccc(C2Oc3c(cccc3OC)C=C2[N+](=O)[O-])cc1OC (configuration not stated)	15.2 µM	67.9 µM	12.8 µM	31 µM	–	> 100 µM	–	> 100 µM	> 100 µM	20.5 µM	78.2 µM	> 100 µM	> 100 µM	38.7 µM	17.9 µM	> 100 µM	20.5 µM	17.4 µM	19.7 µM	53.4 µM
Cc1c(O)c(OC2OC(CO)C(O)C(O)C2O)cc2c1CC[C@@H]1C2(C)C(=O)C[C@]2(C)[C@@H]([C@@](C)(O)C(O)/C=C/C(C)(C)O)[C@H](O)C[C@@]12C (some centres not stated)	> 100 µM	> 100 µM	> 100 µM	> 100 µM	> 100 µM	–	> 100 µM	> 100 µM	> 100 µM	> 100 µM	> 100 µM	> 100 µM	> 100 µM	> 100 µM	> 100 µM	> 100 µM	> 100 µM	> 100 µM	> 100 µM	> 100 µM
COc1ccc(-c2oc3c(CC(=O)O)cccc3c(=O)c2OC)cc1	> 100 µM	> 100 µM	> 100 µM	> 100 µM	–	> 100 µM	> 100 µM	–	> 100 µM	–	> 100 µM	–	–	> 100 µM	> 100 µM	–	–	> 100 µM	> 100 µM	> 100 µM
NC(=O)/N=C(\N)NC(=O)c1ccccc1	> 100 µM	> 100 µM	> 100 µM	> 100 µM	> 100 µM	–	> 100 µM	> 100 µM	> 100 µM	> 100 µM	> 100 µM	> 100 µM	–	> 100 µM	> 100 µM	–	> 100 µM	> 100 µM	> 100 µM	> 100 µM
CC1CC(N)=Nc2ccccc2N1Cc1ccccc1 (configuration not stated)	28.4 µM	24.9 µM	25.3 µM	26 µM	–	23.8 µM	27.8 µM	30.9 µM	–	–	30.9 µM	26.8 µM	34.5 µM	15.4 µM	27.2 µM	20.8 µM	23.8 µM	> 100 µM	> 100 µM	28.4 µM
O=C(O)C(Cc1ccc(O)cn1)NC(=O)C(F)(F)F (configuration not stated)	> 100 µM	> 100 µM	> 100 µM	> 100 µM	–	> 100 µM	> 100 µM	> 100 µM	> 100 µM	> 100 µM	> 100 µM	> 100 µM	–	> 100 µM	–	–	> 100 µM	> 100 µM	> 100 µM	> 100 µM
C#CCCCC(=C)C[C@H](OCc1ccccc1)[C@H]1OC(=O)[C@@H]1C	> 100 µM	> 100 µM	–	> 100 µM	> 100 µM	–	> 100 µM	> 100 µM	> 100 µM	–	> 100 µM	> 100 µM	> 100 µM	–	> 100 µM	> 100 µM	> 100 µM	–	–	> 100 µM
CCOC(=O)c1sc2nc(SC)nc(Nc3ccc4c(c3)OCCCO4)c2c1N	> 100 µM	75.9 µM	37.2 µM	> 100 µM	> 100 µM	–	> 100 µM	> 100 µM	> 100 µM	> 100 µM	> 100 µM	–	> 100 µM	80.7 µM	> 100 µM	–	> 100 µM	> 100 µM	> 100 µM	> 100 µM
